Assays:
[1] = tested on: oncogenic Ras-transformed cells; assay: Proliferation in low glutamine with physiological albumin; type: cell-based; details: 0.2 mM glutamine, rescued by increased glutamine or α-ketoglutarate
[2] = tested on: oncogenic Ras^V12-expressing HeLa cells; assay: Survival under glutamine starvation with extracellular albumin; type: cell-based, human; details: glutamine-free media, low BSA or 2% BSA
Description: If albumin internalization via Ras-stimulated macropinocytosis serves to augment the glutamine supply, then this process should confer a survival and growth advantage under conditions where free glutamine is limiting. To test this prediction, the survival of oncogenic Ras^V12-expressing HeLa cells was tested. […] It was hypothesized that this was due to albumin-derived amino acids that were augmenting the intracellular glutamine supply. It was determined that Ras^V12-survival was enhanced at higher concentrations of extracellular albumin (up to 2%; FIG. 13) and that this survival enhancement was suppressed by EIPA, a macropinocytosis inhibitor (FIGS. 14A-14B).

[3] = cited from earlier work
[4] = tested on: NIH 3T3 [K-Ras^G12V] cells; assay: Intracellular glutamate and α-ketoglutarate levels after albumin supplementation; type: cell-based, murine; details: complete medium + 2% albumin, 24 hours
Description: Glutamine is a major nutrient for many proliferating cells and is rapidly metabolized to glutamate, then α-ketoglutarate to enter central carbon metabolism. To test whether the favorable effects of albumin supplementation on cell growth were related to glutamine metabolism, the intracellular concentrations of glutamate and α-ketoglutarate in cells grown either in the absence or presence of albumin was measured. NIH 3T3 [K-Ras^G12V] cells were cultured for 24 hours in complete media (CM) supplemented to physiological concentrations of albumin (2 g/100 mL, 2%). As a control, NIH 3T3 [K-Ras^G12V] cells were also cultured in CM alone, which contains minimal levels of albumin (˜0.2%). Cells were lysed and metabolite levels were determined from deproteinized cell lysates. The addition of albumin to the media led to significant increases in intracellular concentrations of both glutamate and α-ketoglutarate (FIG. 20A).

[5] = tested on: HeLa cells expressing HA-H-Ras^V12; assay: High-throughput macropinocytosis assay (TMR-dextran uptake, Arrayscan spot detection); type: cell-based, human; details: 30 min pre-incubation in serum-free media, then TMR-dextran 30 min; dose-response
Text: To analyze and quantify Ras-stimulated macropinocytosis, a high content screening (HCS)-compatible platform designed for rapid spot analysis was desired. One such platform is the Arrayscan HCS Reader (Cellomics) in conjunction with the Spot Detector BioApplication (Cellomics), which is designed to provide fluorescent- and image-based generic spot analysis for multiple biological applications. As a model cell-based system, a HeLa Tet-Off (HTO) cell line (Clontech) stably transfected with a tetracycline-repressible transgene encoding an oncogenic form of hemagglutinin (HA)-tagged H-Ras (H-Ras^V12) was used. In brief, 2000 cells per well were plated in 384-well plate format in a total volume of 50 μL. To induce expression of H-Ras^V12, cells were plated in media lacking tetracycline, while control cells were plated in 50 ng/mL tetracycline. […] Macropinosomes were analyzed on a cell-to-cell basis using multichannel analysis on the Arrayscan HCS Reader (FIG. 21A). […] A circular spot identification target region (or mask) was then applied for each object on Channel 2, and spots were detected based on their fluorescent intensity, size, and shape. […] To quantify this, the output feature selected for Channel 2 was Spot Count Per Object, which is effectively a measure of total number amount of fluorescent extracellular fluid internalized per cell in a given incubation time. […]

T24 cells [6] = assay: TMR-dextran labeling of macropinosomes; type: cell-based; details: T24, oncogenic H-Ras
Description: (§1) It was postulated that cancer cells harboring oncogenic Ras mutations would display higher levels of macropinocytosis compared to cancer cells having a non-mutant Ras. For pancreatic cancer cells, macropinocytosis was analyzed in MIA-Paca-2 cells, which are homozygous for the oncogenic K-Ras^G12C allele (Lopez-Crapez et al., “Rapid and Large-Scale Method to Detect K-Ras Gene Mutations in Tumor Samples,” Clin. Chem. 43(6 Pt 1):936-42 (1997) and Pretlow et al., “K-Ras Mutations in Putative Preneoplastic Lesions in Human Colon,” J. Natl. Cancer Inst. 85(24):2004-7 (1993), which are hereby incorporated by reference in their entirety) and BxPc-3 cells that only express wild-type K-Ras (Aoki et al., “Liposome-Mediated in vivo Gene Transfer of Antisense K-Ras Construct Inhibits Pancreatic Tumor Dissemination in the Murine Peritoneal Cavity,” Cancer Res. 55(17):3810-6 (1995), which is hereby incorporated by reference in its entirety). As a bladder model, uptake in T24 and 5637 cells was analyzed. T24 cells are homozygous for the oncogenic H-Ras^V12C allele and 5637 cells only express wild-type H-Ras. […]

[7] = tested on: K-Ras^V12-transformed NIH3T3 cells; assay: High-throughput macropinocytosis assay, amended protocol; type: cell-based, murine; details: high-throughput quantification
Text: To explore the flexibility of the high-throughput compatible macropinocytosis assay, the HeLa-based Spot Detector BioApplication parameters were amended to quantify macropinocytosis in K-Ras^V12-expressing NIH3T3 cells. To do this, object identification parameters were altered to accommodate larger nuclei and the spot identification target region was adjusted accordingly. Untransformed NIH3T3 cells display low levels of macropinocytosis, compared to K-Ras^V12-transformed cells. Using this amended protocol, it was possible to quantify fluid-phase uptake in these cells and determine that K-Ras^V12-expressing cells have a 3-4 fold increase in macropinocytosis (FIGS. 2A-2B). To examine the effects of macropinocytosis inhibitors, K-Ras^V12-transformed NIH3T3 cells were treated with increasing concentrations of LY294002 or EIPA.

T24 cells [8] = assay: FITC-BSA internalization; type: cell-based
Description: (§2) When added to the growth medium, fluorescently-labeled bovine serum albumin (FITC-BSA) was incorporated into vesicular compartments in oncogenic Ras^V12-expressing HeLa cells (FIG. 6A), MIA-Paca-2, and T24 cells. […] Quantification of FITC-BSA uptake was performed utilizing an amended form of the high-throughput protocol described herein (FIG. 6B). Using colocalization experiments, it was observed that FITC-BSA is internalized with a macropinocytosis marker, dextran (FIG. 7A-7C). To be utilized as a nutrient source, the protein contents of Ras-stimulated macropinosomes must be delivered to a degradative compartment, such as the lysosome. The fate of the macropinosomes was followed via pulse chase experiments and their fusion with lysosomes was monitored by co-staining with lysosomal markers (i.e. Lysotracker). Cells were pulsed with TMR-dextran and incubated with TMR-dextran-free media for varying intervals. At the end of the incubation period, cells were stained with a lysosomal marker and visualized by fluorescent microscopy.

[9] = tested on: oncogenic Ras^V12-expressing HeLa cells; assay: FITC-BSA internalization; type: cell-based, human
Description: as §2

MIA-Paca-2 cells [10] = assay: FITC-BSA internalization; type: cell-based, human
Description: as §2

MIA-Paca-2 cells [11] = assay: TMR-dextran labeling of macropinosomes; type: cell-based, human; details: MIA-Paca-2, oncogenic K-Ras^G12C
Description: as §1

macropinocytosis = details: cited from earlier work

CCN(c1nc(N)c(C(=O)N=C(N)N)nc1Cl)C(C)C [EIPA, 5-N-ethyl-N-isoproamiloride]
effect on proliferation [1]: anti-proliferative response | survival enhancement by extracellular albumin [2]: suppressed | solubility in cell culture media [3]: soluble in cell culture media | albumin-dependent increase in intracellular α-ketoglutarate ([4]; 25 mM EIPA): blocked | albumin-dependent increase in intracellular glutamate ([4]; EIPA): blocked | concentration at which maximal inhibition of macropinocytosis occurs [5]: 100 µM | TMR-dextran labeling (macropinocytosis) (T24 cells [6]): inhibited | effect on macropinocytosis with increasing concentrations [7]: dose-response relationship | FITC-BSA internalization (T24 cells [8]): inhibited | FITC-BSA internalization [9]: inhibited | FITC-BSA internalization (MIA-Paca-2 cells [10]): inhibited | TMR-dextran labeling (macropinocytosis) (MIA-Paca-2 cells [11]): inhibited | concentrations at which it exerts its effects on macropinocytosis (macropinocytosis): 50 to 100 µM

O=c1cc(N2CCOCC2)oc2c(-c3ccccc3)cccc12 [LY294002, 2-(4-morpholinyl)-8-phenyl-4H-1-benzopyran-4]
concentration at which maximal inhibition of macropinocytosis occurs [5]: 100 µM

N=C(N)NC(=O)c1nc(Cl)c(N)nc1N [amiloride]
concentrations at which it exerts its effects on macropinocytosis (macropinocytosis): 1000 to 5000 µM
